row,SMILES,melting point [°C]
1,"C[C@@H]1N=C(c2cnc3c(F)cccc3c2)c2cccc(Br)c2[C@H]1C (racemic) [E.12, rac-(3S,4R)-5-bromo-1-(8-fluoro-3-quinolyl)-3,4-dimethyl-3,4-dihydroisoquinoline]",132 to 134
2,"Cc1ccc2c(c1Cl)[C@H](C)[C@H](C)N=C2c1cnc2c(F)cccc2c1 (racemic) [E.14, rac-(3S,4S)-5-chloro-1-(8-fluoro-3-quinolyl)-3,4,6-trimethyl-3,4-dihydroisoquinoline]",84 to 86
3,"C[C@@H]1N=C(c2cnc3c(F)cccc3c2)c2cccc(Cl)c2[C@H]1C (racemic) [E.13, rac-(3S,4R)-5-chloro-1-(8-fluoro-3-quinolyl)-3,4-dimethyl-3,4-dihydroisoquinoline]",112 to 114
4,"Cc1ccc2c(c1Cl)[C@@H](C)[C@H](C)N=C2c1cnc2c(F)cccc2c1 (racemic) [E.09, rac-(3S,4R)-5-chloro-1-(8-fluoro-3-quinolyl)-3,4,6-trimethyl-3,4-dihydroisoquinoline]",82 to 84
5,"C[C@@H]1N=C(c2cnc3c(F)cccc3c2)c2cccc(Cl)c2[C@@H]1C (racemic) [E.15, rac-(3S,4S)-5-chloro-1-(8-fluoro-3-quinolyl)-3,4-dimethyl-3,4-dihydroisoquinoline]",100 to 102

# Results, then the compound that gave them:
row,melting point [°C],SMILES
1,164 to 166,Cc1ccc2c(c1C#N)[C@H](C)[C@H](C)N=C2c1cnc2c(F)cccc2c1 (racemic)
2,140 to 142,"Cc1ccc2c(c1C#N)[C@H](C)[C@H](C)N=C2c1cnc2c(F)c(F)ccc2c1 (racemic) [E.06, rac-(3S,4S)-1-(7,8-difluoro-3-quinolyl)-3,4,6-trimethyl-3,4-dihydroisoquinoline-5-carbonitrile]"
